Measured values from PMC5127042, “A polysaccharide utilization locus from Flavobacterium johnsoniae enables conversion of recalcitrant chitin” (Biotechnology for Biofuels, 2016).

What was measured:
[1] = molecular target: T1, CusDI (Flavobacterium johnsoniae, UniProt A5FB66); assay: isothermal titration calorimetry; type: binding; settings: 20 mM HEPES, 100 mM NaCl, pH 7.0, 25 °C, one-site model
T1 construct: gene Fjoh_4558; residues 33-526, signal peptide removed, N-terminal His tag removed with TEV, E. coli Rosetta(DE3) pLysS
T1 sequence (A5FB66 33-526): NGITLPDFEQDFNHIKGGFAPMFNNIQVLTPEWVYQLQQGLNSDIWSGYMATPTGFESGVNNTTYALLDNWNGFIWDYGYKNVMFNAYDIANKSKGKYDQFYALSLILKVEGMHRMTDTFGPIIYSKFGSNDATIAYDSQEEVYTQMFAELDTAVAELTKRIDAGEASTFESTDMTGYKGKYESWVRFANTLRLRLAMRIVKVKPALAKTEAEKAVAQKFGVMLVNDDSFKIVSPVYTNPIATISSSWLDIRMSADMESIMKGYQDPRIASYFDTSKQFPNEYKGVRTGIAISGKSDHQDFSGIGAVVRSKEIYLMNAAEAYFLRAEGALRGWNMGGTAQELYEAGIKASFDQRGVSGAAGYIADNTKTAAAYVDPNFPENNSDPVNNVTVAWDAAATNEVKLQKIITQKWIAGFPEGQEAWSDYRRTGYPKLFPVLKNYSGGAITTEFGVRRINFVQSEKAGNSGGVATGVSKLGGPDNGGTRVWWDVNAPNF
Source text: isothermal titration calorimetry on CusDI

[2] = molecular target: T2, CusDII (Flavobacterium johnsoniae, UniProt A5FB55); assay: isothermal titration calorimetry; type: binding; settings: 20 mM HEPES, 100 mM NaCl, pH 7.0, 25 °C; independent site model
T2 construct: gene Fjoh_4561; residues 26-505 (crystal construct 35-505), signal peptide removed, N-terminal His tag removed with TEV, E. coli Rosetta(DE3) pLysS
T2 sequence (A5FB55 26-505): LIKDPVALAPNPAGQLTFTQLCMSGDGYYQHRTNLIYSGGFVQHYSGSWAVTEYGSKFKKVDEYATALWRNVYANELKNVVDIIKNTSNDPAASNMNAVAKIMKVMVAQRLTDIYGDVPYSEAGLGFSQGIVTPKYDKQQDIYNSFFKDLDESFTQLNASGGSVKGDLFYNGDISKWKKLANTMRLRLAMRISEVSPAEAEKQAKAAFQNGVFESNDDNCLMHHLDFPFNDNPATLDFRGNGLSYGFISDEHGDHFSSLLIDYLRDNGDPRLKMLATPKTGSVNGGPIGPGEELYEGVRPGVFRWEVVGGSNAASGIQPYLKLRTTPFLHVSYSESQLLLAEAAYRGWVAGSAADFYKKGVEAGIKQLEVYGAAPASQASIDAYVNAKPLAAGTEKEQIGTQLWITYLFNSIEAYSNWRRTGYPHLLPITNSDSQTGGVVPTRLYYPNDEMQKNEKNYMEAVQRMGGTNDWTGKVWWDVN
Source text: isothermal titration calorimetry on CusDII

Kd [1] [µM]	Kd [2] [µM]	SMILES	other results
25.6 ± 2.3		CC(=O)N[C@H]1[C@H](O[C@H]2[C@H](O)[C@@H](NC(C)=O)C(O)O[C@@H]2CO)O[C@H](CO)[C@@H](O)[C@@H]1O (some centres unmarked) [Chitobiose]	
16.1 ± 0.42	41.2 ± 1	CC(=O)N[C@H]1[C@H](O[C@H]2[C@H](O)[C@@H](NC(C)=O)[C@H](O[C@H]3[C@H](O)[C@@H](NC(C)=O)C(O)O[C@@H]3CO)O[C@@H]2CO)O[C@H](CO)[C@@H](O[C@@H]2O[C@H](CO)[C@@H](O[C@@H]3O[C@H](CO)[C@@H](O[C@@H]4O[C@H](CO)[C@@H](O)[C@H](O)[C@H]4NC(C)=O)[C@H](O)[C@H]3NC(C)=O)[C@H](O)[C@H]2NC(C)=O)[C@@H]1O (some centres unmarked) [Chitohexaose]	
12.8 ± 0.21	236 ± 8	CC(=O)N[C@H]1[C@H](O[C@H]2[C@H](O)[C@@H](NC(C)=O)[C@H](O[C@H]3[C@H](O)[C@@H](NC(C)=O)C(O)O[C@@H]3CO)O[C@@H]2CO)O[C@H](CO)[C@@H](O[C@@H]2O[C@H](CO)[C@@H](O[C@@H]3O[C@H](CO)[C@@H](O)[C@H](O)[C@H]3NC(C)=O)[C@H](O)[C@H]2NC(C)=O)[C@@H]1O (some centres unmarked) [Chitopentaose]	
		CC(=O)N[C@H]1[C@H](O[C@H]2[C@H](O)[C@@H](NC(C)=O)C(O)O[C@@H]2CO)O[C@H](CO)[C@@H](O[C@@H]2O[C@H](CO)[C@@H](O[C@@H]3O[C@H](CO)[C@@H](O)[C@H](O)[C@H]3NC(C)=O)[C@H](O)[C@H]2NC(C)=O)[C@@H]1O (some centres unmarked) [Chitotetraose]	Kd ([1]; single titration): 38.3 ± 4.3 µM
8.51 ± 0.51		CC(=O)N[C@H]1[C@H](O[C@H]2[C@H](O)[C@@H](NC(C)=O)C(O)O[C@@H]2CO)O[C@H](CO)[C@@H](O[C@@H]2O[C@H](CO)[C@@H](O)[C@H](O)[C@H]2NC(C)=O)[C@@H]1O (some centres unmarked) [Chitotriose]	
		CC(=O)N[C@H]1C(O)O[C@H](CO)[C@@H](O)[C@@H]1O (some centres unmarked) [GlcNAc]	Kd ([1]; n constrained to 1): 1470 ± 210 µM
